Experimental data as given in ChEMBL document CHEMBL5360591, “Licochalcone A Derivatives as Selective Dipeptidyl Peptidase 4 Inhibitors with Anti-Inflammatory Effects” (J Nat Prod, 2023).

target: Dipeptidyl peptidase 4 (Homo sapiens, UniProt P27487); assay: Inhibition of DPP4 in human plasma using GP-BAN as fluorescent substrate preincubated for 5 mins followed by substrate addition and measured for 20 mins by microplate reader analysis; assay type: cell-free
Sequence (P27487 whole entry): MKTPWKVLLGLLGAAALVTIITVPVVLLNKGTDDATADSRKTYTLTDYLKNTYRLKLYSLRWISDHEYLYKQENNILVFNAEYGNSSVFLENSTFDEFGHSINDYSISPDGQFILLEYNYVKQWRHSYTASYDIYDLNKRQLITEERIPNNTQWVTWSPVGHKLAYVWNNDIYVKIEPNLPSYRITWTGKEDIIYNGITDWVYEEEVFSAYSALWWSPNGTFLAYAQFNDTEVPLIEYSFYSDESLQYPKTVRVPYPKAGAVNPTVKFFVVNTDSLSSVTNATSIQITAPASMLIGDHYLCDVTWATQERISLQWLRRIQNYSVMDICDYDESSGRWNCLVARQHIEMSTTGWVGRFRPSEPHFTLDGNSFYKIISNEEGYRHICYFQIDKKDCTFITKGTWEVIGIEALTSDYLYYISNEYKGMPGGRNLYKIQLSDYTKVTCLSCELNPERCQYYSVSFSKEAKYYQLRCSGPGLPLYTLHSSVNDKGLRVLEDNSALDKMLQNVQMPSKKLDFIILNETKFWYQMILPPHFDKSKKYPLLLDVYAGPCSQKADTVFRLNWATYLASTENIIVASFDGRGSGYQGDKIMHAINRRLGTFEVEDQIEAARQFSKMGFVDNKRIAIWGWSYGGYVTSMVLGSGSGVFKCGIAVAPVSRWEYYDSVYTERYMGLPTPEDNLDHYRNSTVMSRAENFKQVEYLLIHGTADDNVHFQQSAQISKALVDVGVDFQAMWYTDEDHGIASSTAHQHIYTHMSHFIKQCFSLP

SMILES | IC50 [µM]
COc1cc(OC)c(/C=C/C(=O)c2ccc(O)cc2)cc1Cl | 49.2
COc1cc(O)c(Cl)cc1/C=C/C(=O)c1ccc(O)c(C)c1 | 15.1
COc1ccc(C(=O)/C=C/c2cc(Br)c(O)cc2OC)cc1 | 34
CCCCOc1ccc(C(=O)/C=C/c2cc(Br)c(O)cc2OC)cc1 | > 100
CCCOc1ccc(C(=O)/C=C/c2cc(Cl)c(OC)cc2OC)cc1 | > 100
CCOc1ccc(C(=O)/C=C/c2cc(Cl)c(O)cc2OC)cc1 | 21.2
CCOc1ccc(C(=O)/C=C/c2cc(Cl)c(OC)cc2OC)cc1 | > 100
CCCOc1ccc(C(=O)/C=C/c2cc(Br)c(O)cc2OC)cc1 | 26.5
COc1ccc(C(=O)/C=C/c2cc(Cl)c(O)cc2OC)cc1 | 11
COc1cc(O)c(Br)cc1/C=C/C(=O)c1ccc(O)cc1 | 16.4
CCCCOc1ccc(C(=O)/C=C/c2cc(Cl)c(O)cc2OC)cc1 | 42.9
C=CC(C)(C)c1cc(/C=C/C(=O)c2ccc(O)cc2)c(OC)cc1O [LICOAGROCHACONE A] | 30.4
COc1cc(O)c(Cl)cc1/C=C/C(=O)c1ccc(C(F)(F)F)cc1 | 12.6
COc1cc(C(=O)/C=C/c2cc(Cl)c(O)cc2OC)ccc1O | 31.9
